Measured values published in patent publication US20160166572A1, “BENEFICIAL EFFECTS OF Lp-PLA2 INHIBITORS IN TREATMENT OF DIABETIC RETINOPATHY AND AGE-RELATED MACULAR DEGENERATION” (Rowan University, priority 2014, published 2016).

Experiments:
GFAP = GFAP expression in retina (immunofluorescence), DMHC pigs; type: in vivo, pig; details: Darapladib 10 mg/kg/d orally, 24 weeks
Experimental: Briefly, after induction of diabetes by a single injection of Streptozotocin, animals were fed a high cholesterol diet. After a month of DMHC induction and acclimation, animals were randomly segregated to untreated DMHC and Darapladib-treated DMHC groups. Darapladib-treated pigs received 10 mg/kg/d of Darapladib orally. Three of the pigs were spared from DMHC induction and served as age-matched, non-DMHC normal controls. Twenty four weeks after acclimation, animals were euthanized and their brains and eyes were immediately removed. Brains were divided anteroposteriorly into anterior, middle and posterior regions. For each of these brain regions, 2-3 tissue blocks were generated for routine tissue fixation (10% formalin) or freezing and histological processing. […] Cells positive for GFAP were counted throughout the whole thickness of the retina, and then quantified using ImagePro7.0 (Media Cybernetics, Silver Spring, Md.). Briefly, a 300×300 pixel square area was randomly made in each retinal section in three contiguous locations across the retina and the positive GFAP area was determined per total area using a fixed threshold. […] Cell number was determined by counting the DAPI-positive nuclei in a fixed area. […] GFAP-positive fluorescence extended from inner to outer limiting membranes in the DMHC group, confirming that GFAP was predominantly being expressed by Müller cells (FIGS. 5A-E). […]

occludin = test: Occludin protein expression in BVECs of cerebral cortex (IHC, MATLAB), DMHC pigs; type: in vivo, pig; details: Darapladib 10 mg/kg/d orally, 24 weeks
Experimental: Briefly, after induction of diabetes by a single injection of Streptozotocin, animals were fed a high cholesterol diet. After a month of DMHC induction and acclimation, animals were randomly segregated to untreated DMHC and Darapladib-treated DMHC groups. Darapladib-treated pigs received 10 mg/kg/d of Darapladib orally. Three of the pigs were spared from DMHC induction and served as age-matched, non-DMHC normal controls. Twenty four weeks after acclimation, animals were euthanized and their brains and eyes were immediately removed. Brains were divided anteroposteriorly into anterior, middle and posterior regions. For each of these brain regions, 2-3 tissue blocks were generated for routine tissue fixation (10% formalin) or freezing and histological processing. The anterior cortical region comprised of anterior 2⁄3 of frontal lobe and anterior 1⁄3 of temporal lobe. The middle cortical region contained mid 1⁄3 of temporal lobe and anterior 1⁄2 of the parietal lobe. The posterior cortex included the posterior 1⁄2 of the parietal lobe, posterior 1⁄3 of the temporal lobe and the occipital lobe. Eyes were dissected longitudinally to sever the retina at the optic nerve. The sections were fixed in 10% formalin and embedded as flattened disc in paraffin. The tissue samples were processed using routine histology techniques. Standard Hematoxylin & Eosin (H&E) staining (FIG. 1) was carried out in retinal sections. […] Extravasated IgG was detected using biotinylated anti-swine IgG antibody (Vector laboratories, Inc., Catalogue # BA-9020; dilution 1:100). […] Slides were examined and photographed with a Nikon FXA microscope, and digital images were recorded using a Nikon DXM1200F digital camera and analyzed using MATLAB (MathWorks, Mass., USA) and NIS-elements software (Nikon, Melville, N.Y.). […] Claudin5 and occludin protein expression in pig cerebral cortex was evaluated semi-quantitatively using IHC by taking images at five random locations as described previously. Images were analyzed using MATLAB (MathWorks, Mass., USA). […]

## CCN(CC)CCN(Cc1ccc(-c2ccc(C(F)(F)F)cc2)cc1)C(=O)Cn1c(SCc2ccc(F)cc2)nc(=O)c2c1CCC2 [Darapladib]
GFAP; FIG. 5D
  intensity of GFAP immunostaining (GFAP expression) in retina: dramatically lower GFAP expression in the retinas of DMHC pigs, it was still significantly higher than in controls
GFAP; compared to DMHC only, FIGS. 5A-C
  GFAP immunoreactivity, distribution in retina: reduced and confined to the GCL
occludin; FIG. 7E
  occludin protein expression, middle cortex: comparable levels of occludin expression
occludin; rank among treatment groups, FIG. 7D
  occludin protein expression, anterior cortex: highest level of occludin expression
occludin; rank among treatment groups, FIG. 7F
  occludin protein expression, posterior cortex: lowest expression
